# Experimental data taken from PMC12587545, “Noncytotoxic polymyxin derivatives enhance antibiotic action against multidrug-resistant Gram-negative bacteria” (Antimicrobial Agents and Chemotherapy, 2025).
# Like-named read-outs stand apart in the source and are kept apart here. Positions of bridges follow the written chain, without caps; N, C: chain ends. Non-standard residues stand in square brackets, D forms with d. Residues, ends and D or L forms follow the SMILES beside them. *: point of attachment. Agp = N=C(N)NC[C@H](N)C(=O)O; X1 = CC[C@H](C)CCCCC(=O)*; Octanoyl = CCCCCCCC(=O)*; Dab = NCC[C@H](N)C(=O)O; Dap = NC[C@H](N)C(=O)O
# Experiments:
# HK-2 = type: cell-based, human
# Description: (§1) Kidney cell lines, HK-2 (CRL-2190) and RPTEC/TERT1 (CRL-4031), and neural cell lines, U-87 MG (HTB-14) and SK-N-SH (HTB-11), were obtained from American Type Culture Collection (ATCC). HK-2 cells were cultured in T75 flasks with keratinocyte serum-free medium supplemented with bovine pituitary extract, human epidermal growth factor, and 2.5% FBS. RPTEC/TERT1 cells were cultured in T75 flasks with Dulbecco’s modified Eagle’s medium:F12 supplemented with the ATCC (United States) human telomerase reverse transcriptase immortalized RPTEC growth kit, G418 (0.1 mg/mL final concentration), and 2% FBS. Both U-87 MG and SK-N-SH cells were cultured in minimal essential media supplemented with 10% FBS. The cells were incubated in a humidified atmosphere at 5% CO2 and at 37°C.
# (§2) The cytotoxicity of the compounds toward the mammalian cell lines was assessed using the cell viability assay protocols as previously described ([29]). Designated wells in 96-well plates were seeded with HK-2 (5,000 cells), RPTEC/TERT1 (8,000 cells), U-87 MG (7,000 cells), or SK-N-SH (8,000 cells) in 50 µL. Blank wells received an identical volume of only media. After incubating the cells for 24 h, all wells were treated with varying concentrations of the compound and incubated for 48 h. Subsequently, PrestoBlue reagent (Invitrogen, United States) was added to the wells to a final concentration of 10% (vol/vol), and the plate was incubated for an additional 1 h. Fluorescence was measured with a SpectraMax M2 plate reader (Molecular Devices, United States), at excitation and emission wavelengths of 560 and 590 nm, respectively. Values from the blank wells were subtracted from the corresponding wells containing cells. The cell viability relative to the controls with vehicle was calculated and presented as mean ± standard deviation of at least two experiments with five replicates each. CC50 values were obtained using GraphPad Prism (version 10.4.1) by non-linear regression (four-parameter logistic fit).
# RPTEC/TERT1 = type: cell-based, human; conditions: 48 h
# Description: as §1, §2
# P. aeruginosa [1] = system: P. aeruginosa
# Description: (§3) The bacterial isolates were acquired from ATCC or the Canadian Ward Surveillance (CANWARD) study ([56]). CANWARD isolates were collected from infected patients admitted to participating medical centers across Canada.
# (§4) The antibiotic or compound was serially diluted 2-fold in CAMHB on a 96-well plate and was incubated with equal volumes of bacterial inoculum overnight at 37°C. Wells containing only media were used as negative controls, and wells containing only bacteria were used as positive controls. Antibacterial activity was measured by the MIC, or the lowest concentration of agent required to inhibit visible bacterial growth. Turbidity was confirmed with a Molecular Devices (United States) EMax Plus microplate reader at a wavelength of 590 nm.
# A. baumannii [2] = type: cell-based, Acinetobacter baumannii
# Description: Gram-negative and Gram-positive bacterial isolates were grown in lysogeny broth (LB) and brain heart infusion, respectively, overnight in a shaking incubator at 250 rpm and at 37°C.
# The antibacterial activity of the antibiotics and compounds was assessed using the broth microdilution assay in accordance with Clinical Laboratory Standards Institute (CLSI) guidelines ([36]), and by following a previously described protocol ([27][–][29], [54], [55]). Bacterial culture grown overnight was diluted in saline to 0.5 McFarland turbidity and was further diluted 1:50 in CAMHB to attain a final concentration of 5 × 10^5 colony-forming units (cfu)/mL for inoculation. The antibiotic or compound was serially diluted 2-fold in CAMHB on a 96-well plate and was incubated with equal volumes of bacterial inoculum overnight at 37°C. Wells containing only media were used as negative controls, and wells containing only bacteria were used as positive controls. Antibacterial activity was measured by the MIC, or the lowest concentration of agent required to inhibit visible bacterial growth. Turbidity was confirmed with a Molecular Devices (United States) EMax Plus microplate reader at a wavelength of 590 nm.
# E. coli = conditions: for Resistance phenotype of MDR clinical isolates (antibiotic susceptibility value): Table S4
# Description: as §3
# as §4, with “growth.” for “growth. Turbidity was confirmed with a Molecular Devices (United States) EMax Plus microplate reader at a wavelength of 590 nm.”
# P. aeruginosa [3] = test: Checkerboard assay (antibiotic potentiation); type: cell-based, Pseudomonas aeruginosa; conditions: P. aeruginosa PAO1; compound alone
# Description: The interaction between the compounds and the antibiotics was evaluated using the fractional inhibitory concentration (FIC) index. FIC indices of ≤0.5 is synergistic, 0.5 < × ≤ 4 is additive, whereas >4 is antagonistic ([34]).
# Synergy was measured by the FIC index, which is the summation of the individual FICs of the antibiotic and the compound. The FIC is calculated by dividing the MIC of one agent in the presence of another by the MIC of the agent alone. […] The FBS studies were conducted by following a previously published protocol ([29], [50]). The FBS was inactivated by heating at 56°C for 30 min with constant swirling.
# A. baumannii [4] = test: Checkerboard assay (antibiotic potentiation); type: cell-based, Acinetobacter baumannii; conditions: A. baumannii ATCC 17978; compound alone
# Description: The interaction between the compounds and the antibiotics was evaluated using the fractional inhibitory concentration (FIC) index. FIC indices of ≤0.5 is synergistic, 0.5 < × ≤ 4 is additive, whereas >4 is antagonistic ([34]). […] .
# as §3
# The antibiotic and compounds were serially diluted 2-fold in CAMHB along the x- and y-axis, respectively, on a 96-well plate that was subsequently incubated with equal volumes of bacterial inoculum overnight at 37°C. Wells containing only media were used as negative controls, and wells containing only bacteria were used as positive controls. Synergy was measured by the FIC index, which is the summation of the individual FICs of the antibiotic and the compound. The FIC is calculated by dividing the MIC of one agent in the presence of another by the MIC of the agent alone. Turbidity was confirmed with a Molecular Devices (United States) EMax Plus microplate reader at a wavelength of 590 nm. The FBS studies were conducted by following a previously published protocol ([29], [50]). The FBS was inactivated by heating at 56°C for 30 min with constant swirling.
# E. cloacae = system: E. cloacae
# Description: as §3, §4
# K. pneumoniae = system: K. pneumoniae
# Description: as §3, §4
# SK-N-SH = test: Cell viability assay (PrestoBlue); type: cell-based; conditions: SK-N-SH
# Description: as §1
# as §2, with “After incubating the cells for 24 h, all wells were treated with varying concentrations of the compound and incubated for 48 h.” left out
# U-87 MG = test: Cell viability assay (PrestoBlue); type: cell-based; conditions: U-87 MG
# Description: as §1
# as §2, with “After incubating the cells for 24 h, all wells were treated with varying concentrations of the compound and incubated for 48 h.” left out
# [5] = cited from earlier work
# Description: Although the amphiphilic nature of polymyxins is crucial to permeabilize the outer membrane, this property can also be detrimental as it increases binding affinity to serum proteins, thereby limiting bioavailability ([50]). […] To assess the impact of serum binding on antibiotic potentiation, FBS was added to the media to simulate these conditions (Table 10). Zoliflodacin potentiation by compound 1 was diminished with increasing ...
# [6] = E. cloacae 121887, colistin-resistant
# [7] = K. pneumoniae 113250, colistin-resistant
# [8] = P. aeruginosa 259-96916, clinical isolate
# [9] = P. aeruginosa 262-101856, clinical isolate
# [10] = P. aeruginosa 264-104354, clinical isolate
# [11] = P. aeruginosa 101243, colistin-resistant
# [12] = P. aeruginosa 114228, colistin-resistant
# [13] = A. baumannii 92247, colistin-resistant
# [14] = E. coli 94393, colistin-resistant
# [15] = E. coli 94474, colistin-resistant
compound,measurement,setting,value
CCCCCCCC(=O)N[C@@H](CCN)C(=O)N[C@H](C(=O)N[C@@H](CC(=O)O)C(=O)N[C@H]1CCNC(=O)[C@H]([C@@H](C)O)NC(=O)[C@H](CCN)NC(=O)[C@H](CCN)NC(=O)[C@H](CC(C)C)NC(=O)[C@@H](Cc2ccccc2)NC(=O)[C@H](CCN)NC1=O)[C@@H](C)O [Compound 4] (Octanoyl-[Dab]TD[Dab][Dab][dF]L[Dab][Dab]T; lactam 4-C),CC50 in HK-2,HK-2,236.1 µM
same,CC50 in HK-2,HK-2; 48 h,236.8 µM
same,CC50 in RPTEC/TERT1,RPTEC/TERT1,238.8 µM
CCCCCCCC(=O)N[C@@H](CN)C(=O)N[C@H](C(=O)N[C@@H](CC(=O)O)C(=O)N[C@H]1CCNC(=O)[C@H]([C@@H](C)O)NC(=O)[C@H](CN)NC(=O)[C@H](CN)NC(=O)[C@H](CC(C)C)NC(=O)[C@@H](Cc2ccccc2)NC(=O)[C@H](CN)NC1=O)[C@@H](C)O [Compound 3] (Octanoyl-[Dap]TD[Dab][Dap][dF]L[Dap][Dap]T; lactam 4-C),MIC,P. aeruginosa [1],>128 µg/mL
same,MIC,A. baumannii [2],>128 µg/mL
same,MIC,E. coli,>128 µg/mL
same,MICcompound,P. aeruginosa [3],>128 µg/mL
same,MICcompound,A. baumannii [4],>128 µg/mL
same,CC50 in HK-2,HK-2; 48 h,215.5 µM
same,CC50 in RPTEC/TERT1,RPTEC/TERT1,627.2 µM
CCCCCCCC(=O)N[C@@H](CNC(=N)N)C(=O)N[C@H](C(=O)N[C@@H](CNC(=N)N)C(=O)N[C@H]1CCNC(=O)[C@H]([C@@H](C)O)NC(=O)[C@H](CNC(=N)N)NC(=O)[C@H](CNC(=N)N)NC(=O)[C@H](CC(C)C)NC(=O)[C@@H](Cc2ccccc2)NC(=O)[C@H](CNC(=N)N)NC1=O)[C@@H](C)O [Compound 2] (Octanoyl-[Agp]T[Agp][Dab][Agp][dF]L[Agp][Agp]T; lactam 4-C),CC50 in HK-2,HK-2; 48 h,26.9 µM
same,CC50 in RPTEC/TERT1,RPTEC/TERT1,28 µM
"CC[C@H](C)CCCCC(=O)N[C@@H](CCN)C(=O)N[C@H](C(=O)N[C@@H](CCN)C(=O)N[C@H]1CCNC(=O)[C@H]([C@@H](C)O)NC(=O)[C@H](CCN)NC(=O)[C@H](CCN)NC(=O)[C@H](CC(C)C)NC(=O)[C@@H](CC(C)C)NC(=O)[C@H](CCN)NC1=O)[C@@H](C)O [Colistin, colistin] (X1-[Dab]T[Dab][Dab][Dab][dL]L[Dab][Dab]T; lactam 4-C (inferred); N-terminus assumed)",MIC,E. cloacae; E. cloacae 117029,0.25 µg/mL
same,MIC,E. cloacae; [6],>16 µg/mL
same,MIC,K. pneumoniae; [7],256 µg/mL
same,MIC,K. pneumoniae; K. pneumoniae 116381,1 µg/mL
same,MIC,P. aeruginosa [1]; [8],0.5 µg/mL
same,MIC,P. aeruginosa [1]; [9],2 µg/mL
same,MIC,P. aeruginosa [1]; [10],1 µg/mL
same,MIC,P. aeruginosa [1]; [11],1024 µg/mL
same,MIC,P. aeruginosa [1]; [12],4 µg/mL
same,MIC,A. baumannii [2]; [13],4 µg/mL
same,MIC,A. baumannii [2]; A. baumannii 110193,0.5 µg/mL
same,MIC,A. baumannii [2]; A. baumannii AB027,0.25 µg/mL
same,MIC,A. baumannii [2]; A. baumannii AB031,0.25 µg/mL
same,MIC,E. coli; [14],4 µg/mL
same,MIC,E. coli; [15],16 µg/mL
same,MIC,E. coli; E. coli 107115,0.125 µg/mL
same,MIC,E. coli; E. coli 131629,≤0.25 µg/mL
Polymyxin B [PMB],MIC,E. cloacae; E. cloacae 117029,0.5 µg/mL
same,MIC,E. cloacae; [6],>128 µg/mL
same,MIC,K. pneumoniae; [7],128 µg/mL
same,MIC,K. pneumoniae; K. pneumoniae 116381,1 µg/mL
same,MIC,P. aeruginosa [1]; [8],≤0.063 µg/mL
same,MIC,P. aeruginosa [1]; [9],0.5 µg/mL
same,MIC,P. aeruginosa [1]; [10],2 µg/mL
same,MIC,P. aeruginosa [1]; [11],>128 µg/mL
same,MIC,P. aeruginosa [1]; [12],64 µg/mL
same,MIC,"P. aeruginosa [1]; P. aeruginosa PAO1, wild-type, CAMHB, overnight 37°C",1 µg/mL
same,MIC,A. baumannii [2]; [13],8 µg/mL
same,MIC,A. baumannii [2]; A. baumannii 110193,1 µg/mL
same,MIC,A. baumannii [2]; A. baumannii AB027,0.25 µg/mL
same,MIC,"A. baumannii [2]; A. baumannii ATCC 17978, wild-type",2 µg/mL
same,MIC,E. coli; [14],4 µg/mL
same,MIC,E. coli; [15],16 µg/mL
same,MIC,E. coli; E. coli 107115,0.25 µg/mL
same,MIC,E. coli; E. coli 131629,≤0.25 µg/mL
same,MIC,"E. coli; E. coli ATCC 25922, wild-type",0.5 µg/mL
same,toxicity,SK-N-SH,lack of toxicity
same,toxicity,U-87 MG,lack of toxicity
same,mean protein binding,[5],> 90%
same,median protein binding,[5],58%
CCCCCCCC(=O)N[C@@H](CCN)C(=O)N[C@H](C(=O)N[C@@H](CCN)C(=O)N[C@H]1CCNC(=O)[C@H]([C@@H](C)O)NC(=O)[C@H](CCN)NC(=O)[C@H](CCN)NC(=O)[C@H]([C@@H](C)O)NC(=O)[C@@H]([C@H](C)O)NC(=O)[C@H](CCN)NC1=O)[C@@H](C)O [Compound F230] (Octanoyl-[Dab]T[Dab][Dab][Dab][dT]T[Dab][Dab]T; lactam 4-C),CC50 in HK-2,HK-2; 48 h,263.1 µM
same,CC50 in RPTEC/TERT1,RPTEC/TERT1,471.4 µM
"CN(C)c1cc(CNCC(C)(C)C)c(O)c2c1C[C@H]1C[C@H]3[C@H](N(C)C)C(O)=C(C(N)=O)C(=O)[C@@]3(O)C(O)=C1C2=O [OMC, omadacyline]",Resistance phenotype of MDR clinical isolates (antibiotic susceptibility value),"E. cloacae; E. cloacae 117029, Table S4",4
same,Resistance phenotype (antibiotic susceptibility profile),K. pneumoniae; K. pneumoniae 113250,2
same,Resistance phenotype (antibiotic susceptibility profile),K. pneumoniae; K. pneumoniae 116381,4
same,Resistance phenotype (antibiotic susceptibility profile),P. aeruginosa [1]; P. aeruginosa 259-96916,64
same,Resistance phenotype (antibiotic susceptibility profile),P. aeruginosa [1]; P. aeruginosa 262-101856,64
same,Resistance phenotype (antibiotic susceptibility profile),P. aeruginosa [1]; P. aeruginosa 264-104354,64
same,Resistance phenotype (antibiotic susceptibility profile),P. aeruginosa [1]; P. aeruginosa 114228,128
same,Resistance phenotype (antibiotic susceptibility profile),A. baumannii [2]; A. baumannii AB027,1
same,Resistance phenotype (antibiotic susceptibility profile),A. baumannii [2]; A. baumannii AB031,2
same,Resistance phenotype of MDR clinical isolates (antibiotic susceptibility value),E. coli; E. coli 94393 (mcr-1 +),4
same,Resistance phenotype of MDR clinical isolates (antibiotic susceptibility value),E. coli; E. coli 94474 (mcr-1 +),16
same,Resistance phenotype of MDR clinical isolates (antibiotic susceptibility value),E. coli; E. coli 107115,4
